How the values were obtained:
[1] = biological target: T1, Acetylcholinesterase (Homo sapiens, UniProt P22303); assay: Inhibition of acetylcholinesterase (unknown origin) using acetylthiocholine as substrate preincubated for 30 mins followed by substrate addition and measured after 2 mins by Ellman's method
[2] = biological target: T1, Acetylcholinesterase; assay: Inhibition of acetylcholinesterase (unknown origin) at 0.01 to 100 uM using acetylthiocholine as substrate preincubated for 30 mins followed by substrate addition and measured after 2 mins by Ellman's method relative to control

T1 sequence (P22303 whole entry): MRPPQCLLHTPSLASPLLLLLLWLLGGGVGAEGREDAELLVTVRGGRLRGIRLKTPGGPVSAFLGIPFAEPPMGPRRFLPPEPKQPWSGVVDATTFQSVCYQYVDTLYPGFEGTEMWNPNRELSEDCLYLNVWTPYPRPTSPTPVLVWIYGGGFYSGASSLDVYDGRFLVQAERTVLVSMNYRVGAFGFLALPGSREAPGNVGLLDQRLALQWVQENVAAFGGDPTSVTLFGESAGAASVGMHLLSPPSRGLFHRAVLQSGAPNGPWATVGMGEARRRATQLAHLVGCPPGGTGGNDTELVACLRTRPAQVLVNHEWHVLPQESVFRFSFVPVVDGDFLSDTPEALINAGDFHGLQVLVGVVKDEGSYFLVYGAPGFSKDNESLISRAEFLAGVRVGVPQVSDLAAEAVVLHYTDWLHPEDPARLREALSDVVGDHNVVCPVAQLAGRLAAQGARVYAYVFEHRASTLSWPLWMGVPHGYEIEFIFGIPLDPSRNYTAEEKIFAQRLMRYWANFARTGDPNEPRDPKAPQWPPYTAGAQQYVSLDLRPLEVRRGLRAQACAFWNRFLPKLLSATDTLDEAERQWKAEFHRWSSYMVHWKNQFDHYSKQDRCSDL

| SMILES | IC50 [1] | inhibition [2] |
| --- | --- | --- |
| COc1ccc([C@H]2O[C@@H](O)[C@H]3[C@@H]2C(=O)O[C@@H]3c2ccc(OC)c(OC)c2)cc1OC | 0.028 µM | > 70% |
| COc1ccc([C@H]2OC[C@H]3[C@@H]2CO[C@@H]3c2cc(OC)c(OC)c(OC)c2)cc1OC | 0.903 µM | > 90% |
| COc1ccc([C@H]2OC[C@H]3[C@@H]2C(=O)O[C@@H]3c2ccc3c(c2)OCO3)cc1OC | 2.23 µM | > 70% |
| COc1ccc([C@H](O)[C@H](N)C(=O)O)cc1OC | 0.001 µM | > 70% |
| COc1cc([C@H]2OC[C@H]3[C@@H]2CO[C@@H]3c2cc(OC)c(OC)c(OC)c2)cc(OC)c1OC | 0.616 µM | 65% |
| COc1ccc([C@H]2OC(=O)[C@H]3[C@@H]2C(=O)O[C@@H]3c2ccc3c(c2)OCO3)cc1OC | 0.158 µM | > 90% |
| COc1ccc([C@H]2O[C@@H](O)[C@H]3[C@@H]2C(=O)O[C@@H]3c2cc(OC)c3c(c2)OCO3)cc1OC | 0.003 µM | > 70% |
| COc1cc([C@H]2OC[C@H]3[C@@H]2CO[C@@H]3c2cc(OC)c3c(c2)OCO3)cc(OC)c1OC | 0.46 µM | 81% |
